Values after ≈ are worked out from the molar mass of the structure shown. Values joined by “and” are separate entries in the source; they are usually repeats but may differ in a detail not shown here. Equal values may be shown once. Read-outs that look alike come from different tables or passages of the source.
Legend:
[1] = tested on: Thrips Megalurothrips usitatus; conditions: 24-hour fumigation assay, 0-0.192 μL/dm^3
[2] = T 25 °C; cited from earlier work
[3] = tested on: Drosophila melanogaster (fruit fly); experiment: Median lethal concentration fumigation test, fruit fly; format: in vivo; conditions: mortality after 280 minutes
[4] = tested on: H. picinus (Nitidulid beetle); experiment: Median lethal time (LT50) test, Nitidulid beetle; format: in vivo, Haptoncus picinus
Source text: (§1) All treatments and controls were in triplicate.
(§2) Toxicity of Monoterpenes as Fumigants. […] Therefore, to determine how fast the monoterpenes act as fumigants, it was necessary to determine their LT50 values for the target organisms.

[5] = target: T1, recombinant gamma-aminobutyric acid receptor-associated protein (rGABARAP) (Frankliniella occidentalis, UniProt A0A6J1T1Q2); experiment: Microscale thermophoresis (MST) binding to rGABARAP
T1 sequence (A0A6J1T1Q2 1-118): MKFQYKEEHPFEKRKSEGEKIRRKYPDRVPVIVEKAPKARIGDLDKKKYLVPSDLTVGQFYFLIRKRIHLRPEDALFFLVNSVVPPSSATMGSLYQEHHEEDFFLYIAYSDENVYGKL
Source text: (§3) Preparation of recombinant GABARAP (rGABARAP) protein. RNA was extracted from F. occidentalis and cDNA was then synthesized. GABARAP (GenBank accession No. LOC113211372) was obtained after PCR amplification (Stafford-Banks, et al. (2014) Plos One 9:e94447).
(§4) Interaction between ME and rGABARAP. A Nano Temper Monolith NT.115 MST system (Nano Temper, Munich, Germany) was used to assess the binding affinities between the target compounds and rGABARAP according to the published procedures (Zan, et al. (2020) Journal of Agricultural and Food Chemistry 68:6280-6285). Spinosyn A was used as a chemical positive control. Spinosyn A (≥1 nM) can trigger a change of the Cl^− current of insect neuron GABAAR, which is considered to be an insecticidal action mechanism of spinosyn A (Watson (2001) Pesticide Biochemistry and Physiology 71:20-28). Ovalbumin (OVA) (Sangon Biotech, Shanghai, China) is a control protein consisting of 385 amino acid residues. The interaction between OVA and ME was used as a protein control experiment (Huntington, et al. (1995) Protein Science 4:613-621).

[6] = tested on: A. japonicus (parasitic wasp); experiment: Median lethal time (LT50) test, parasitic wasp (natural enemy)
Description: (§5) Insect Egg Parasitic Wasp (Natural Enemy). […] Both species were purchased from a commercial source. One- to two-day-old adults (after eclosion) were used for fumigation tests.
Median Lethal Time (LT50) and Median Knockdown Concentration (KC50) Tests. Five species of adult insects or natural enemies were tested for LT50 values including melon fly (B. cucuribitae), red flour beetle (T. castaneum), Nitidulidae beetle (H. picinus), parasitic wasp (A. japonicus) and housefly (M. domestica). For each treatment and control, 20 insects at the developmental stages described above were placed individually without food in a 1-L wide-mouth glass bottle (height 19.5 cm, bottom diameter 10.5 cm, mouth i.d. 5.5 cm) containing pieces of tissue paper. […] Five different concentrations of the test chemicals were placed on pieces of cellulose-based qualitative filter paper. Each of the filter papers was placed in a bottle to have 5 appropriate concentrations in serial dilutions. DDVP was the positive control, and no chemical treatments were the negative control. All treatments and controls were in triplicate. Mortality was observed periodically in a 10-30 minute interval for 2 days or until all insects died. The death was defined as no movement when the insects were touched.

[7] = tested on: B. cucuribitae (melon fly); experiment: Median lethal time (LT50) test, melon fly; format: in vivo, Bactrocera cucuribitae
Source text: as §1, §2

[8] = tested on: Megalurothrips usitatus (flower Thrips); conditions: adult M. usitatus, 24 hours of fumigation in 1-L flasks
[9] = tested on: Aedes aegypti (mosquito); experiment: Median knockdown concentration (KC50) test, mosquito; format: in vivo
Source text: as §1
(§6) Knockdown Activity of Monoterpenes.

[10] = tested on: T. castaneum (red flour beetle); experiment: Median lethal time (LT50) test, red flour beetle; format: in vivo, Tribolium castaneum
Source text: as §1, §2

[11] = tested on: honeybee Apis mellifera; experiment: 24-hour fumigation assay on honeybee; conditions: for Mortality ± STD: 60 bees; for toxicity to honeybee (in words): 24-hour fumigation
Source text: Experiments were done with 20 bees per group in triplicate.
Activity of Monoterpenes Against Honeybees. The honeybee (Apis mellifera) is the most frequent floral visitor of crops worldwide.

[12] = tested on: Aedes aegypti (Linnaeus) (mosquito)
Source text: (§7) Median Lethal Concentration Tests. […] The species tested included Thrips (M. usitatus), spider mite (T. cinnabarinus), melon fly (B. cucuribitae), cockroach (B. lateralis), housefly (M. domestica), mosquito (A. aegypti), parasitic wasp (T. chilonis) and fruit fly (Drosophila melanogaster). After being exposed to the test chemicals for one hour, adult Thrips, spider mites, and roaches were transferred to another flask. In addition to fresh water, adult Thrips, spider mites, and roaches were then respectively fed with cowpea, fresh blade of eggplant, and peanut oil via filter. […] Mortality of melon fly was observed after three hours of exposure.

[13] = tested on: Blatta lateralis (Walker) (cockroach)
Source text: as §7

[14] = tested on: Bactrocera cucuribitae (Coquillett) (melon fly)
Source text: as §7

[15] = tested on: Tetranychus cinnabarinus (Boisduval) (spider mites)
Source text: as §7

[16] = tested on: Musca domestica (Linnaeus) (housefly)
Source text: as §7

[17] = tested on: Megalurothrips usitatus (Bagrall) (thrips); experiment: Median lethal concentration fumigation test, thrips
Source text: as §7

[18] = tested on: T. chilonis (parasitic wasp); conditions: non-target parasitic wasp, mortality after 15 minutes of exposure
Source text: as §5, §7

[19] = tested on: Musca domestica (housefly); experiment: Median knockdown concentration (KC50) test, housefly; format: in vivo; conditions: Musca domestica
Source text: as §1, §6

[20] = tested on: adult T. palmi; conditions: cited from earlier work
[21] = target: T2, rGABARAP^Y174A (Frankliniella occidentalis, UniProt A0A6J1T1Q2); experiment: MST binding to rGABARAP mutant; conditions: for Kd: read-out: Kd value, MST
T2 sequence (A0A6J1T1Q2 entry or part of it, stated change not applied): as the sequence (A0A6J1T1Q2 1-118) above
Description: as §4
(§8) Preparation of rGABARAP Mutant and Interaction Between ME and rGABARAP Mutant. […] DNAman was used to convert the nucleic acid sequence into an amino acid sequence and find the Y174 site. Y174 was mutated to A174. The rGABARAP mutant gene loaded into the pMCSG19 vector and the His tags at both ends of the sequence were retained to construct a prokaryotic expression plasmid. The carrier contained a maltose binding protein (MBP) tag that was not cut for verification. However, MBP and ME were used as treatment controls. The mutant plasmid was constructed in Sangon Biotech (Shanghai, China). The protein expression, purification, and desalting procedures of rGABARAP^Y174A mutant and rGABARAP were the same. Subsequently, the binding kinetics of ME and rGABARAP^Y174A were tested by MST and ITC.

[22] = target: T2, rGABARAP^Y174A; experiment: ITC binding to rGABARAP mutant
Description: (§9) The isothermal titration thermal binding measurements were performed with an ITC-200 calorimeter (GE Healthcare, Boston, MA) at 25° C. in a buffer containing 50 mM Tris-HCl and 100 mM NaCl (pH 7.4). […] The MicroCal Origin 7.0 software system was used for data processing. The first run was a pre-run and was excluded from the final data. The amount of protein in the sample pool was constant. […] The experimental bimolecular interaction data from the 18 drops were used to calculate the dissociation constant. The dissociation constant […] was calculated as 1/K (Li, et al. (2018) RSC Advances 8:18952-18958).
as §8

[23] = target: T1, recombinant gamma-aminobutyric acid receptor-associated protein (rGABARAP); experiment: Isothermal titration calorimetry (ITC) binding to rGABARAP; conditions: 25° C., pH 7.4
Description: as §3, §9

[24] = tested on: Frankliniella occidentalis second-instar nymphs; experiment: whole plant or invertebrate; conditions: 24 h
Description: Chemicals. […] These monoterpenes and the positive control spinosyn A (Bosite Technology, Chongqing, China) were dissolved in acetone (10 g/L).
Insects. F. occidentalis Thrips were provided by the Institute of Vegetables and Flowers, Chinese Academy of Agricultural Sciences (Beijing, China), and kept in a box (19 cm×14 cm×20 cm) at 27±1° C., humidity of 50%-60% and a photoperiod of 16:8 h (light:dark). The population was established with sword beans (Canavalia gladiata). Second-instar nymphs with the same growth were tested.
Insect Assays. […] The leaf blade (2 cm×3 cm) was immersed in the solution for 10 s in the test solution, and then air-dried until there were no water drops on the surface. The concentrations were the same as those used in the insecticide-impregnated membrane method. After the chemical film had been formed for 2 h, the infusion leaves were placed in the bottles. The second-instar nymphs were picked with a soft writing brush to make up ten insects per bottle. The bottles were sealed with plastic wrap. 1% Triton X-100 (m/V) aqueous solution as a blank control. Each treatment was repeated four times. The bottles were placed under temperature of 27±1° C., humidity of 50%-60% and photoperiod of 16:8 h (light:dark). […] The insects were touched with a soft brush and numbers of dead and living Thrips were recorded, followed by calculation of the mortality rates.

[25] = tested on: housefly adults; conditions: cited from earlier work
[26] = rGABARAP, read-out: Kd value, MST
[27] = adult thrips, exposed one hour, mortality observed in 24 hours

## CC(C)=C1CC[C@@H](C)CC1=O [(+)-Pulegone]
[1]
  LC50: 0.079 μL/dm^3
[2]
  Vp (Pa)/T (° C.): 16.3/25 Pa
[3]
  LC50 (fiducial limits): 0.043 ng/mL (≈ 0.000282 µM)
  LC90 (fiducial limits): 0.14 ng/mL (≈ 0.00092 µM)
[4]
  LT50 (fiducial limits): 0.50 h
  fold faster action relative to the other five monoterpenes (LT50): ≥ 1.2 fold
[4]; listed as (+)-pulegone
  LT50 (fiducial limits): 0.500 h
[5]; [26]
  Kd: 1720 nM
[6]; A. japonicus
  LT50 fold greater than that of DDVP: approximately 1.2 fold
[6]; non-target parasitic wasp
  LT50 (fiducial limits) against A. japonicus: 0.47 (0.00-0.68) hour
[7]
  LT50 (fiducial limits): 0.87 h
  fold faster action relative to the other five monoterpenes (LT50): at least 1.9 fold
[8]
  activity against flower Thrips in preliminary screening: exhibit insecticidal activity
[9]; 10 Minutes
  KC50 (fiducial limits): 19.6(8.41-35.5) μg/cm^3
[9]; 20 Minutes
  KC50 (fiducial limits): 1.40 µg/mL
[9]; 30 Minutes
  KC50 (fiducial limits): 1.4 µg/mL
[10]
  LT50 (fiducial limits): 3.47 h
[11]; 0.012 μL/dm^3, 24-hour fumigation
  Mortality ± STD: 5.0 ± 8.7%
[11]; 0.024 μL/dm^3, 24-hour fumigation
  Mortality ± STD: 3.3 ± 5.8%
[11]; 0.048 μL/dm^3, 24-hour fumigation
  Mortality ± STD: 5.0 ± 5.0%
[11]; 0.096 μL/dm^3, 24-hour fumigation
  Mortality ± STD: 5.0 ± 5.0%
[11]; 0.192 μL/dm^3, 24-hour fumigation
  Mortality ± STD: 8.3 ± 7.6%
[11]; 0.2 μL/dm^3, 24-hour fumigation
  mortality relative to no chemical control: 3%
[11]
  toxicity to honeybee (in words): little lethal toxicity
[11]; listed as (+)-pulegone
  toxicity to honeybee (in words): failed to have a negative impact
[12]; adult mosquito, exposed 30 minutes, mortality in 24 hours
  LC90 (fiducial limits): 16.8 µg/mL (≈ 110 µM)
[12]; in vivo
  LC50 (fiducial limits): 10.3 µg/mL (≈ 67.7 µM)
[13]; cockroach second instar nymphs, exposed one hour
  LC90 (fiducial limits): 173 µg/mL (≈ 1140 µM)
[13]; in vivo
  LC50 (fiducial limits): 15.0 µg/mL (≈ 98.5 µM)
[14]; in vivo
  LC50 (fiducial limits): 112 µg/mL (≈ 736 µM)
[14]; melon fly
  LC90 (fiducial limits): 657 µg/mL (≈ 4320 µM)
[15]; in vivo
  LC50 (fiducial limits): 2.52 µg/mL (≈ 16.6 µM)
[15]; spider mites, exposed one hour
  LC90 (fiducial limits): 40.8 µg/mL (≈ 268 µM)
[16]; adult housefly, exposed one hour, mortality in 24 hours
  LC90 (fiducial limits): 11.9 µg/mL (≈ 78.2 µM)
[16]; in vivo
  LC50 (fiducial limits): 7.38 µg/mL (≈ 48.5 µM)
[17]; [27]
  LC50 (fiducial limits): 0.20 µg/mL (≈ 1.31 µM)
  LC90 (fiducial limits): 0.67 µg/mL (≈ 4.4 µM)
[17]; adult thrips, exposed one hour, mortality observed in 24 hours, listed as (+)-pulegone
  LC50 (fiducial limits): 0.196 µg/mL (≈ 1.29 µM)
[17]; thrips
  activity fold greater (smaller LC50) than positive control DDVP: 3.5 fold
[18]
  LC50 (fiducial limits) against T. chilonis: 2.02 µg/mL and 2.06 µg/mL
  LC90 (fiducial limits) against T. chilonis: 12.1 µg/mL (≈ 79.5 µM)
[19]; 20 Minutes
  KC50 (fiducial limits): >243 µg/mL
[19]; 30 Minutes
  KC50 (fiducial limits): 12.2 µg/mL

## CC(C)=C1CC[C@H](C)CC1=O [(−)-Pulegone]
[1]
  LC50: 0.119 μL/dm^3
[2]
  Vp (Pa)/T (° C.): 16.3/25 Pa
[3]
  LC50 (fiducial limits): 0.106 ng/mL (≈ 0.000696 µM)
  LC90 (fiducial limits): 0.359 ng/mL (≈ 0.00236 µM)
[20]
  LC50, fumigation toxicity: 9.5 µg/mL (≈ 62.4 µM)
[5]; [26]
  Kd: 2530 nM

## C/C=C/c1ccc(OC)cc1 [Anethole, 1-(4-methoxyphenyl) -1-propen]
[21]
  Kd: 41 ± 36.4 µM
[5]; [26]
  Kd: 1610 nM
[22]
  Kd value, ITC: No binding
[23]
  Kd: 4.49 µM

## COc1cccc2c1cc([N+](=O)[O-])c1c(C(=O)O)cc3c(c12)OCO3 [Aristolochic acid A, 3,4-methylenedioxy-8-methoxy-10-nitro-1-phenanthrenecarboxylicacid, reference compound]
[21]
  Kd: 158 ± 82 µM
[5]
  Kd: 146000 nM
[22]
  Kd value, ITC: No binding
[23]
  Kd value, ITC: no binding
[24]
  LC50: 40 µg/mL (≈ 117 µM)

## C=CCc1ccc(OC)c(OC)c1 [Eugenol methyl ether, 1-(3,4-dimethoxyphenyl) -2-propene]
[21]
  Kd value, MST: loss of binding
[5]; [26]
  Kd: 1300 nM
[22]
  Kd value, ITC: neither MBP nor ME interacted
[23]
  Kd: 4.22 µM
[8]
  activity against flower Thrips in preliminary screening: exhibit insecticidal activity

## CC1CCC(C(C)C)C(O)C1 (centres unmarked) [menthol]
[25]
  repellent activity: 96%

## CC(C)[C@@H]1CC[C@@H](C)CC1=O [menthone]
[25]
  repellent activity: 83%
